Assay results taken from patent US20220184071A1, “GEPOTIDACIN FOR USE IN THE TREATMENT OF BACTERIAL URINARY TRACT INFECTIONS” (GlaxoSmithKline Intellectual Property Development Limited, priority 2019, published 2022).
Converted amounts (≈) assume the structure as drawn. Read-outs that look alike come from different tables or passages of the source.

Columns and labels:
Bacteroides fragilis = experiment: MIC by agar dilution, drug-resistant isolates; assay type: cell-based
Method: (§1) Antimicrobial activity was determined by agar dilution using the Clinical and Laboratory Standards Institute (CLSI) recommended procedure.
(§2) The compounds were tested in serial two-fold dilutions and the minimum inhibitory concentration (MIC) was determined as the lowest concentration of the compound that inhibited visible growth. Gepotidacin was tested against 333 gram-negative anaerobic and 203 gram-positive anaerobic isolates collected from clinical samples in North America and Europe from 2000 to 2017; the majority collected from 2013 to 2016.
(§3) Additional analysis was performed from the results of the study described in Method 1 above, to determine the in vitro activity of gepotidacin against gram-negative and gram-positive anaerobic organisms with resistance to ceftriaxone, clindamycin, imipenem, metronidazole, moxifloxacin and piperacillin/tazobactam.

[1] = system: Prevotella melaninogenica; experiment: MIC by agar dilution, drug-resistant isolates; assay type: cell-based; settings: 1 isolate
Method: as §1, §2, §3

[2] = system: Lactobacillus, non-speciated; experiment: MIC by agar dilution, drug-resistant isolates; assay type: cell-based
Method: as §1, §2, §3

Bacteroides uniformis = experiment: MIC by agar dilution, drug-resistant isolates; assay type: cell-based
Method: as §1, §2, §3

Prevotella buccae = experiment: MIC by agar dilution, drug-resistant isolates; assay type: cell-based; settings: 4 isolates
Method: as §1, §2, §3

Bacteroides vulgatus = experiment: MIC by agar dilution, drug-resistant isolates; assay type: cell-based
Method: as §1, §2, §3

Porphyromonas levii = experiment: MIC by agar dilution, drug-resistant isolates; assay type: cell-based; settings: metronidazole R; 1 isolate
Method: as §1, §2, §3

[3] = system: Fusobacterium necrophorum; experiment: MIC by agar dilution, drug-resistant isolates; assay type: cell-based; settings: clindamycin R; 1 isolate
Method: as §1, §2, §3

Prevotella bivia = experiment: MIC by agar dilution, drug-resistant isolates; assay type: cell-based
Method: as §1, §2, §3

Eubacterium limosum = experiment: MIC by agar dilution, drug-resistant isolates; assay type: cell-based; settings: moxifloxacin R; 2 isolates
Method: as §1, §2, §3

E. coli [4] = experiment: Phase IIa baseline uropathogen susceptibility testing (CLSI broth microdilution); assay type: cell-based, Escherichia coli; settings: Escherichia coli, read-out: GEP MIC
Method: This phase IIa single center study evaluated the safety, tolerability, pharmacokinetics, and efficacy of oral gepotidacin 1500 mg BID for 5 days in female subjects with acute cystitis. Clean catch mid-stream urine specimens were obtained for quantitative culture by standard methods. Urine samples were taken from all participants pre-treatment (baseline) and at all post-baseline visits. All urine samples were sent to a central laboratory (PPD Global Clinical Laboratories, Highland Heights, Ky., USA) for Gram stain, quantitative culture, pathogen identification and susceptibility testing. See FIG. 1 for participant disposition and study outline.
Susceptibility testing by CLSI broth microdilution and gradient diffusion (fosfomycin only) was conducted (CLSI, 2015, Methods for dilution antimicrobial susceptibility tests for bacteria that grow aerobically; approved standard-tenth edition; and CLSI, 2018. Performance Standards for Antimicrobial Susceptibility Testing; Twenty-seventh Informational Supplement M100-S28). Inclusion in the microbiological intent-to-treat population (micro-ITT), required growth of a qualifying baseline uropathogen (≥10^5 CFU/mL). See FIG. 2 for the baseline algorithm.

E. coli [5] = experiment: Neutropenic mouse thigh infection model PK/PD; assay type: in vivo
Method: PK and PD studies using gepotidacin were conducted in murine (male CD-1 mice) thigh and kidney infections. The administered doses ranged from 1 to 200 mg/kg SC every 6 hours starting 1h post infection. Infected tissues were evaluated for bacterial burden at 24 h post infection (baseline controls at 1 h post infection).
Efficacy was determined against E. coli ALL, 997577, ATCC25922, IR5 and NCTC13441 (MICs of 1 to 4 μg/mL) in thigh-infected neutropenic (I−) mice and against E. coli ALL in kidney-infected immunocompetent (I+) and I− mice. The PopPK model was used to determine GEP exposures associated with efficacy. PK-PD analyses were conducted using Phoenix WinNonLin 6.3 (Pharsight). The change in login colony forming units (CFU) from baseline were correlated with free drug (f) AUC:MIC using an inhibitory model from the Phoenix library, and model parameter values for each isolate were used to calculate the plasma fAUC:MIC associated with stasis, 1- or 2-login reductions in CFU.
PD studies were conducted using thigh and/or kidney infection models in neutropenic or competent mice (N=5/group). Mice were infected with a bacterial suspension in log phase: 100 μL in the left thigh muscle or 50 μL in each of both kidneys (100 μl total). Final inocula across all isolates were 6.0 to 7.0 login CFU/mouse. Dose-ranging studies were conducted with 5 isolates (see Table 1). Starting 1 hr after infection, GEP was given SC (0.2 mL/mouse) at discrete doses of 1-200 mg/kg every 6 hours (q6) for a 24-hour period (4 doses in total). Mice were euthanized 24 hr after start of therapy (6 hr after the last dose), and infected thighs or kidneys were processed to determine viable bacterial counts (CFU). Baseline CFU were obtained from untreated mice at 1 hr post infection and growth control CFU from saline-treated mice at 24 hr.
NCA analyses were conducted with the simulated data.
PK-PD analysis was conducted using Phoenix WinNonLin 6.3 (Pharsight): • Log10 colony forming units (CFU) from each group were correlated with PK-PD parameters using several inhibitory models from the Phoenix library. • Model parameter values for each isolate were used to calculate the PK-PD parameter value associated with stasis, 1-log or 2-log reductions from baseline 1 h controls.

[6] = 5 E. coli isolates, listed as Gepotidacin

For O=c1ccc2ncc(=O)n3c2n1C[C@H]3CN1CCC(NCc2cc3c(cn2)OCCC3)CC1 [gepotidacin, (2R)-2-({4-[(3,4-dihydro-2H-pyrano[2,3-c]pyridin-6-ylmethyl)amino]-1-piperidinyl}methyl)-1,2-dihydro-3H,8H-2a,5,8a-triazaacenaphthylene-3,8-dione], the “Gepotidacin MIC range” value (Bacteroides fragilis; ceftriaxone R, 35 isolates) was 0.25 to 32 µg/mL, the “Gepotidacin MIC range” value (Bacteroides fragilis; clindamycin R, 22 isolates) was at most 0.015 to 32 µg/mL and the “Gepotidacin MIC range” value (Bacteroides fragilis; imipenem R, 1 isolate) was 0.5 µg/mL. The “Gepotidacin MIC range” value (Bacteroides fragilis; moxifloxacin R, 19 isolates) was 0.25 to 32 µg/mL, the “Gepotidacin MIC range” value (Bacteroides fragilis; pip/tazo R, 2 isolates) was 0.5 to 4 µg/mL and the “Gepotidacin MIC range” value ([1]; ceftriaxone R) was 0.25 µg/mL. The “Gepotidacin MIC range” value ([1]; clindamycin R) was 0.25 µg/mL, the “Gepotidacin MIC range” value ([2]; clindamycin R, 1 isolate) was 0.03 µg/mL and the “Gepotidacin MIC range” value ([2]; imipenem R, 9 isolates) was 0.03 to 1 µg/mL. For the same compound, the “Gepotidacin MIC range” value (Bacteroides uniformis; ceftriaxone R, 3 isolates) was 1 to 2 µg/mL, the “Gepotidacin MIC range” value (Bacteroides uniformis; clindamycin R, 1 isolate) was 1 µg/mL and the “Gepotidacin MIC range” value (Bacteroides uniformis; moxifloxacin R, 1 isolate) was 1 µg/mL. For the same compound, the “Gepotidacin MIC range” value (Prevotella buccae; ceftriaxone R) was 0.25 to 2 µg/mL, the “Gepotidacin MIC range” value (Prevotella buccae; clindamycin R) was 0.25 to 4 µg/mL and the “Gepotidacin MIC range” value (Bacteroides vulgatus; ceftriaxone R, 7 isolates) was at most 0.015 to 4 µg/mL. The “Gepotidacin MIC range” value (Bacteroides vulgatus; clindamycin R, 4 isolates) was at most 0.015 to 2 µg/mL, the “Gepotidacin MIC range” value (Bacteroides vulgatus; moxifloxacin R, 3 isolates) was 0.25 to 4 µg/mL and the “Gepotidacin MIC range” value (Porphyromonas levii) was at most 0.015 µg/mL. For the same compound, the “Gepotidacin MIC range” value [3] was 0.25 µg/mL, the “Gepotidacin MIC range” value (Prevotella bivia; ceftriaxone R, 1 isolate) was 1 µg/mL and the “Gepotidacin MIC range” value (Prevotella bivia; clindamycin R, 2 isolates) was 0.5 to 4 µg/mL. For the same compound, the “Gepotidacin MIC range” value (Prevotella bivia; moxifloxacin R, 2 isolates) was 4 µg/mL, the “Gepotidacin MIC range” value (Eubacterium limosum) was 0.25 to 0.5 µg/mL and the MIC (E. coli [4]; Participant 2) was 2 µg/mL (≈ 4.46 µM). The MIC (E. coli [4]; Participant 3) was 0.5 µg/mL (≈ 1.11 µM), the MIC (E. coli [4]; Participant 4) was 2 µg/mL (≈ 4.46 µM) and the MIC (E. coli [4]; Participant 5, MDR and fluoroquinolone-resistant) was 1 µg/mL (≈ 2.23 µM). The MIC (E. coli [4]; Participant 6, MDR) was 2 µg/mL (≈ 4.46 µM), the “Median daily plasma fAUC/MIC for 1-log Drop” value (E. coli [5]; 5 E. coli isolates) was 16 and the “Median daily plasma fAUC/MIC for 2-log Drop” value (E. coli [5]; 5 E. coli isolates) was 25. For the same compound, the “Median daily plasma fAUC/MIC for stasis” value (E. coli [5]; 5 E. coli isolates) was 11, the “range of plasma fAUC:MIC ratios for 1-log10 reduction in CFU” value (E. coli [5]; 5 E. coli isolates) was 4-25 and the “range of plasma fAUC:MIC ratios for 2-log10 reduction in CFU” value (E. coli [5]; 5 E. coli isolates) was 7-40. For the same compound, the “range of plasma fAUC:MIC ratios for stasis” value (E. coli [5]; 5 E. coli isolates) was 3-17, the “Median daily plasma fAUC/MIC for 1-log Drop” value (E. coli [5]; [6]) was 16.0 and the “Median daily plasma fAUC/MIC for 2-log Drop” value (E. coli [5]; [6]) was 25.4. For the same compound, the “Median daily plasma fAUC/MIC for stasis” value (E. coli [5]; [6]) was 10.6, the “Daily fAUC/MIC for 1-log Drop, Mean ± SD” value (E. coli [5]; 5 strains) was 14.6 ± 9.0 and the “Daily fAUC/MIC for 2-log Drop, Mean ± SD” value (E. coli [5]; 5 strains) was 22.9 ± 12.8. For the same compound, the “Daily fAUC/MIC for Stasis, Mean ± SD” value (E. coli [5]; 5 strains) was 9.9 ± 6.8, the “Daily fAUC/MIC for 1-log Drop” value (E. coli [5]; Strain 997577) was 16.0 and the “Daily fAUC/MIC for 2-log Drop” value (E. coli [5]; Strain 997577) was 25.4. The “Daily fAUC/MIC for Stasis” value (E. coli [5]; Strain 997577) was 10.6, the “Daily fAUC/MIC for 1-log Drop” value (E. coli [5]; Strain ALL, Neutropenic Thigh) was 6.5 and the “Daily fAUC/MIC for 2-log Drop” value (E. coli [5]; Strain ALL, Neutropenic Thigh) was 13.8. The “Daily fAUC/MIC for Stasis” value (E. coli [5]; Strain ALL, Neutropenic Thigh) was 3.0, the “Daily fAUC/MIC for 1-log Drop” value (E. coli [5]; Strain ATCC25922) was 21.5 and the “Daily fAUC/MIC for 2-log Drop” value (E. coli [5]; Strain ATCC25922) was 27.6. The “Daily fAUC/MIC for Stasis” value (E. coli [5]; Strain ATCC25922) was 16.8, the “Daily fAUC/MIC for 1-log Drop” value (E. coli [5]; Strain IR5) was 4.3 and the “Daily fAUC/MIC for 2-log Drop” value (E. coli [5]; Strain IR5) was 7.2. For the same compound, the “Daily fAUC/MIC for Stasis” value (E. coli [5]; Strain IR5) was 2.8, the “Daily fAUC/MIC for 1-log Drop” value (E. coli [5]; Strain NCTC13441) was 24.9 and the “Daily fAUC/MIC for 2-log Drop” value (E. coli [5]; Strain NCTC13441) was 40.3. The “Daily fAUC/MIC for Stasis” value (E. coli [5]; Strain NCTC13441) was 16.2 and the “Median plasma fAUC:MIC targets ranged” value (E. coli [5]; stasis to 2-log10 reduction) was 11 to 25.
